Measured values from patent US11123334B2 (priority 2018, dated 2021).

Assays:
μ opioid receptors = molecular target: T1, μ opioid receptors (Mus musculus, UniProt P42866); settings: cited from earlier work
T1 construct: host or cells: live mouse (endogenous receptor)

rhesus monkeys [1] = test: Heroin-induced respiratory depression, head plethysmograph, seated monkeys; settings: for duration in reversing and protecting against heroin-induced respiratory depression: FIG. 2; for antagonism of respiratory-depressant effects of heroin: day after (24 hours after) antagonist administration
rhesus monkeys [2] = test: Intravenous drug self-administration (heroin or cocaine), fixed-ratio 30 schedule; format: in vivo; settings: for duration of action on responding for heroin (in words): after a single administration; for responding for cocaine: naltrexone 0.032 mg/kg, MCAM 0.32 mg/kg, cocaine 0.032 mg/kg/infusion; for responding for heroin: session following s.c. pretreatment, heroin 0.0032 mg/kg/infusion

T1 sequence (P42866 whole entry): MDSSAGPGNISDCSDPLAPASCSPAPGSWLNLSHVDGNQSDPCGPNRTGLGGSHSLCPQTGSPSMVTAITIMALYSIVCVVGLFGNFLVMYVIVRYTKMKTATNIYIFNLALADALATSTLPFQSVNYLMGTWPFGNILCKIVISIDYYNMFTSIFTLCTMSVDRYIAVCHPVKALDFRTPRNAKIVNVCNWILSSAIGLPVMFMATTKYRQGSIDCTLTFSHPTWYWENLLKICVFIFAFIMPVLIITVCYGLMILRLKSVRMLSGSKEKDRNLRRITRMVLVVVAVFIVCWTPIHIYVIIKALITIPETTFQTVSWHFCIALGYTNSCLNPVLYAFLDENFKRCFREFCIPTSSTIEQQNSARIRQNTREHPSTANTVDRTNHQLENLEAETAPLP

Structure (SMILES)	antagonism of morphine (μ opioid receptors; 48 hours later)	effect on antinociception of 1000 mg/kg morphine (μ opioid receptors; one hour after administration)	reversal of opioid agonist side effects (respiratory depression) (rhesus monkeys [1]; 0.32 mg/kg subcutaneously, monkeys received heroin 0.1-1.0 mg/kg)	respiratory-depressant effects of heroin after antagonist (rhesus monkeys [1]; 4 days after administration of antagonist)	duration in reversing and protecting against heroin-induced respiratory depression (rhesus monkeys [1])	antagonism of respiratory-depressant effects of heroin (rhesus monkeys [1])	duration of action on responding for heroin (in words) (rhesus monkeys [2])	time responding for heroin remained decreased (rhesus monkeys [2]; after a single injection of antagonist)	responding for cocaine (rhesus monkeys [2])	responding for heroin (rhesus monkeys [2])	decrease of respiration by heroin (rhesus monkeys [1]; monkeys breathing air, largest heroin dose tested, s.c.)	duration of action on responding for heroin (in words) (rhesus monkeys [2]; listed as Naltrexone)
Cc1ccc(/C=C/C(=O)N[C@@]23CCC(=O)[C@@H]4Oc5c(O)ccc6c5[C@@]42CCN(CC2CC2)[C@@H]3C6)cc1 [MCAM, methocinnamox]	marked antagonism of morphine	prevented any antinociceptive effect	reversed	not affected	long duration	continued to antagonize	more than one week	up to 8 days	did not affect responding for cocaine	decreased responding for heroin		
CC(=O)Oc1ccc2c3c1O[C@H]1[C@@H](OC(C)=O)C=C[C@H]4[C@@H](C2)N(C)CC[C@@]341 [heroin, reference compound]											≤ 70 % of control	
C=CCN1CC[C@]23c4c5ccc(O)c4O[C@H]2C(=O)CC[C@@]3(O)[C@H]1C5 [naloxone, reference compound]					short duration							
O=C1CC[C@@]2(O)[C@H]3Cc4ccc(O)c5c4[C@@]2(CCN3CC2CC2)[C@H]1O5 [naltrexone, reference compound]						no longer effective	less than one day		did not affect responding for cocaine	decreased responding for heroin		returning to baseline levels the next day
